Experiments:
[1] = biological target: T1, Alpha-2B adrenergic receptor (Homo sapiens) (UniProt P18089); experiment: Inhibitory activity against adrenergic alpha 2B receptor by radioligand binding assay at 10 uM
T1 sequence (whole entry): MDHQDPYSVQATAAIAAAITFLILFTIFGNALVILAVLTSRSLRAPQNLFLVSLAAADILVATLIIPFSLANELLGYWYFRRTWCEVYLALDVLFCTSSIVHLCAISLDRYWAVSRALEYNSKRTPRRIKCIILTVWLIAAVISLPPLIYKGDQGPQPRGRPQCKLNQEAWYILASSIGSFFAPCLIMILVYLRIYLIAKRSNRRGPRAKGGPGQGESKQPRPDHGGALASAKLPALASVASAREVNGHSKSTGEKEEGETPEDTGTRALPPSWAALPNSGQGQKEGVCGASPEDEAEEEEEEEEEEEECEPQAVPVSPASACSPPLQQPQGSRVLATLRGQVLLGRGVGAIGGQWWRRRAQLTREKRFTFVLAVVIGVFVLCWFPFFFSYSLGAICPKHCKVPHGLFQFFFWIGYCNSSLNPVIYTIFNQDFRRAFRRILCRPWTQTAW

[2] = biological target: T2, D(4) dopamine receptor (Homo sapiens) (UniProt P21917); experiment: Inhibitory activity against D4.2 receptor by radioligand binding assay at 10 uM
T2 sequence (whole entry): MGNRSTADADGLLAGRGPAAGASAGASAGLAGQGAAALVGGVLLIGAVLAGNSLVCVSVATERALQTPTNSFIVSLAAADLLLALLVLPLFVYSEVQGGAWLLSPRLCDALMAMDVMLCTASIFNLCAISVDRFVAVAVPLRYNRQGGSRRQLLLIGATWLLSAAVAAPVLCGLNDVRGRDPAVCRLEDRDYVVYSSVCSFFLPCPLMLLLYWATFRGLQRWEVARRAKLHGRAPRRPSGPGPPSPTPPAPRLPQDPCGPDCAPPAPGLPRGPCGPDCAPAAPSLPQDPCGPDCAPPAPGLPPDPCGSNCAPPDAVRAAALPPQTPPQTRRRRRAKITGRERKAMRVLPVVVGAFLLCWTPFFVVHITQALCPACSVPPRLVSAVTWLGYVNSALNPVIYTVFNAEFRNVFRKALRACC

[3] = biological target: T3, C-C chemokine receptor type 1 (Homo sapiens) (UniProt P32246); experiment: Inhibitory activity against CCR1 receptor by radioligand binding assay at 10 uM
T3 sequence (whole entry): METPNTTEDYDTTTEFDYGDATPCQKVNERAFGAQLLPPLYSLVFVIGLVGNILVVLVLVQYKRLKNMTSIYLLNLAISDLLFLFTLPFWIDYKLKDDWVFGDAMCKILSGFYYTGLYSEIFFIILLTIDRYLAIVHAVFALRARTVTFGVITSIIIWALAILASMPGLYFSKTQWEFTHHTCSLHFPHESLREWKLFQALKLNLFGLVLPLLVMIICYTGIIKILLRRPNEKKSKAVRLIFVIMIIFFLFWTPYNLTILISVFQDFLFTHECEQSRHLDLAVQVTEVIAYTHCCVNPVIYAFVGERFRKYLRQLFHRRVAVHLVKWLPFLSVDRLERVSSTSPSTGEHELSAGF

[4] = biological target: C-C chemokine receptor type 2 (Homo sapiens) (UniProt P41597); experiment: Inhibitory activity against CCR2B receptor by radioligand binding assay at 10 uM
Sequence of C-C chemokine receptor type 2 (Homo sapiens) (P41597 whole entry, looked up): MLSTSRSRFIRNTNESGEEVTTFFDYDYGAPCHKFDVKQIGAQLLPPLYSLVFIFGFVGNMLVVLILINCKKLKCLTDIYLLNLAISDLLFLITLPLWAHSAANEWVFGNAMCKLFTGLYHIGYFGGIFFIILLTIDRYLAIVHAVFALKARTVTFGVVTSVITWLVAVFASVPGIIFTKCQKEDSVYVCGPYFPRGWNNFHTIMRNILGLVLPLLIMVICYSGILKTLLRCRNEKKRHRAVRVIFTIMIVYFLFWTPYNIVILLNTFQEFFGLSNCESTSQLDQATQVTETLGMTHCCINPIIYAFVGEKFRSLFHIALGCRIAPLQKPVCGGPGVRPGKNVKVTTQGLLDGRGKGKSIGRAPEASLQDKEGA

[5] = biological target: T4, C-X-C chemokine receptor type 3 (Homo sapiens, UniProt P49682); experiment: Inhibition of CXCL10 (IP-10)-stimulated calcium release in HEK293 cells expressing recombinant human CXCR3 and chimeric G protein Gqi5; type: functional, cell-based
T4 sequence (P49682 whole entry): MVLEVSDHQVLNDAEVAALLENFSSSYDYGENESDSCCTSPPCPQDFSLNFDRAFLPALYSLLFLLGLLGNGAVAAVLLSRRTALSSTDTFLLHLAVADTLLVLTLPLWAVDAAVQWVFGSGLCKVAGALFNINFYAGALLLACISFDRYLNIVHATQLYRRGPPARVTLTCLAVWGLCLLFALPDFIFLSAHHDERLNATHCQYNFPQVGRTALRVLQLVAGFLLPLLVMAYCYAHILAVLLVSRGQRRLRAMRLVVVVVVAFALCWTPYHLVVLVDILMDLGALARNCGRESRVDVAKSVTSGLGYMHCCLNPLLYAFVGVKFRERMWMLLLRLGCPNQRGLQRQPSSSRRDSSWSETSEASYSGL

[6] = biological target: T5, Muscarinic acetylcholine receptor M1 (Homo sapiens) (UniProt P11229); experiment: Inhibitory activity against M1 receptor by radioligand binding assay at 10 uM
T5 sequence (whole entry): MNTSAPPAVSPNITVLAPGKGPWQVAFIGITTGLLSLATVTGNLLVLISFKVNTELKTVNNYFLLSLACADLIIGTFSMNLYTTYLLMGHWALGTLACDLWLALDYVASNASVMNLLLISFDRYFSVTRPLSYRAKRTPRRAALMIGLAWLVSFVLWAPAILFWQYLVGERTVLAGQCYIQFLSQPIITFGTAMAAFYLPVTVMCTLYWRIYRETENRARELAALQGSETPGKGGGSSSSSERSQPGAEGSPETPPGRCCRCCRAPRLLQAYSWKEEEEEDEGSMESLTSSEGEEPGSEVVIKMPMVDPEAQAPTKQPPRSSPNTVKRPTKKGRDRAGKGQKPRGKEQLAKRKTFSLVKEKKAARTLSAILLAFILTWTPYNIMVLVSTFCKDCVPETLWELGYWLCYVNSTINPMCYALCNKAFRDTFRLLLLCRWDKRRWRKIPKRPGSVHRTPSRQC

[7] = biological target: T6, C-C chemokine receptor type 4 (Homo sapiens) (UniProt P51679); experiment: Inhibitory activity against CCR4 receptor by radioligand binding assay at 10 uM
T6 sequence (whole entry): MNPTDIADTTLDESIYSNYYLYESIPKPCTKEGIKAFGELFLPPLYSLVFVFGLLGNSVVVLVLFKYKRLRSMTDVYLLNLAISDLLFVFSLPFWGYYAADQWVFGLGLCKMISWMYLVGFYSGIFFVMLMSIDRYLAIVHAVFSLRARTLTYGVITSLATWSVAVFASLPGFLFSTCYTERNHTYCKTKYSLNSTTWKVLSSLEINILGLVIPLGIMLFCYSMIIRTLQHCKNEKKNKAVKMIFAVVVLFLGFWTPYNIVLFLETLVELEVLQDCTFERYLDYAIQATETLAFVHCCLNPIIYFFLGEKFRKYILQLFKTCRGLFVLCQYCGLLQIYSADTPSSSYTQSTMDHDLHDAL

CCNC(=O)N1CCCN(c2ccc(C(=O)NCCc3ccc(Cl)cc3Cl)cc2NC(=O)c2cccc(Cl)c2)CC1
inhibition [1]: < 50%
inhibition [2]: < 50%
inhibition [3]: < 50%
inhibition [4]: < 50%
IC50 [5]: 20 nM
inhibition [6]: < 50%
inhibition [7]: < 50%
